In ChEMBL document CHEMBL5465560, “Selectivity Literature for EUbOPEN Chemogenomic Library” (2024):
One block for each compound: values may come before it.

Key:
[1] = target: Cannabinoid receptor 1 (Homo sapiens, UniProt P21554); experiment: Selectivity interaction (Eurofins CEREP Diversity Profile (receptors and ion channels)) EUB0000279b CNR1; details: at 10 µM
[2] = target: N-lysine methyltransferase SMYD2 (Homo sapiens) (UniProt Q9NRG4); experiment: Selectivity interaction (Methyltransferase screen (radiometric assays, panel of 8 PRMTs, 21 protein lysine methyltransferases, 3 DNA methyltransferases, and one RNA methyltransferase)) EUB0000272b SMYD2
Chain of N-lysine methyltransferase SMYD2 (Homo sapiens) (Q9NRG4 whole entry): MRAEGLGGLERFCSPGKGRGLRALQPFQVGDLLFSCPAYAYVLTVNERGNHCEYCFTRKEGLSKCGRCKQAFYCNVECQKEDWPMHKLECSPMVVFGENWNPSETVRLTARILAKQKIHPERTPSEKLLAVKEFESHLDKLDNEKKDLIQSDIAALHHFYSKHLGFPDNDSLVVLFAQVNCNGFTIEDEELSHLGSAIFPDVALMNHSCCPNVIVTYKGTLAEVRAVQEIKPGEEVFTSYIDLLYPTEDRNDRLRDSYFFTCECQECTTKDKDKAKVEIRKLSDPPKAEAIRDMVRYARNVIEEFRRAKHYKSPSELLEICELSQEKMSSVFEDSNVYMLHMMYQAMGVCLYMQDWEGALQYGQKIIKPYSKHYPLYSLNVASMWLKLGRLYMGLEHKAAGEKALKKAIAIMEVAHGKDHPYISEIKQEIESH

[3] = target: Serine/threonine-protein kinase Nek4 (Homo sapiens) (UniProt P51957); experiment: Selectivity interaction (KinomeScan (DiscoverX)) EUB0000666a NEK4; details: at 10 µM
[4] = target: Activin receptor type-1-like (Homo sapiens) (UniProt P37023); experiment: Selectivity interaction (KinomeScan (DiscoverX)) EUB0000607a ACVRL1; details: at 10 µM
Chain of Activin receptor type-1-like (Homo sapiens) (P37023 whole entry): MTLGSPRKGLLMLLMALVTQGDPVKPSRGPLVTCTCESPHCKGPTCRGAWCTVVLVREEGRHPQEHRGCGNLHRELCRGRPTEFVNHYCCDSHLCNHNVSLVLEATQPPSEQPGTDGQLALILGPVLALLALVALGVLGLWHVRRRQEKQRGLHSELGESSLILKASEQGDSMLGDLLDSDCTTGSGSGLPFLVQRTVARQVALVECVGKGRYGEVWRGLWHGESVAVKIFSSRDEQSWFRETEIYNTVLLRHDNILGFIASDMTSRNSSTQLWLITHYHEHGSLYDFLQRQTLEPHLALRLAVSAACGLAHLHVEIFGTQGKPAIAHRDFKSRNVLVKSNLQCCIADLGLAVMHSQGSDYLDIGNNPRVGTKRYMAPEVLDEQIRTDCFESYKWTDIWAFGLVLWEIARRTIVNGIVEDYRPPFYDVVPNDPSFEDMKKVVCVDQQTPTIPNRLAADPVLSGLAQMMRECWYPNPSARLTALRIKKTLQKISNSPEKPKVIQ

[5] = target: Serine/threonine-protein kinase PAK 6 (Homo sapiens) (UniProt Q9NQU5); experiment: Selectivity interaction (SelectScreen profiling (Invitrogen)) EUB0000607a PAK6; details: at 2 µM
[6] = target: Non-receptor tyrosine-protein kinase TYK2 (Homo sapiens, UniProt P29597); experiment: Selectivity interaction (ActivX KiNativ screen (kinase selectivity in THP-1 cell lysates)) EUB0000639a TYK2; assay type: subcellular; details: lysate, at 0.2 µM
[7] = target: T1, Mitogen-activated protein kinase kinase kinase 3 (Homo sapiens) (UniProt Q99759); experiment: Selectivity interaction (KinomeScan (DiscoverX)) EUB0000595a MAP3K3; details: at 10 µM
T1 sequence (whole entry): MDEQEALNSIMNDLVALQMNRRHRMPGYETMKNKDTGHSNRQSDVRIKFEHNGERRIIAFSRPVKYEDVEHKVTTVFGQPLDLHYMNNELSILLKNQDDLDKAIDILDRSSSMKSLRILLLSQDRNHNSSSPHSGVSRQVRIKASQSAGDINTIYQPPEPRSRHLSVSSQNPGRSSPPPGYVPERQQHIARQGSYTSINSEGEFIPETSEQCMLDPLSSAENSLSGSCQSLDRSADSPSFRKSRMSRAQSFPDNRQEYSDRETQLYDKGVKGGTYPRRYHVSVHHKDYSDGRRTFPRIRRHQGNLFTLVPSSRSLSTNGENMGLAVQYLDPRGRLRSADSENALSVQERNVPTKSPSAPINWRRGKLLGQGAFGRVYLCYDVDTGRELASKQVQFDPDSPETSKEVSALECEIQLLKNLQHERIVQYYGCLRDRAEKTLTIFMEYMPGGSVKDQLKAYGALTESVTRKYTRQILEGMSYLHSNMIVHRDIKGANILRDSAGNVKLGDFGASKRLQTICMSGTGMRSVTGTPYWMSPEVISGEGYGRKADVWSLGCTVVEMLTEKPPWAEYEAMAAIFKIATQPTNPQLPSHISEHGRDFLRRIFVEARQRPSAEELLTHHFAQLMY

[8] = target: T2, Serine/threonine-protein kinase RIO1 (Homo sapiens) (UniProt Q9BRS2); experiment: Selectivity interaction (KinomeScan (DiscoverX)) EUB0000655a RIOK1; details: at 10 µM
T2 sequence (whole entry): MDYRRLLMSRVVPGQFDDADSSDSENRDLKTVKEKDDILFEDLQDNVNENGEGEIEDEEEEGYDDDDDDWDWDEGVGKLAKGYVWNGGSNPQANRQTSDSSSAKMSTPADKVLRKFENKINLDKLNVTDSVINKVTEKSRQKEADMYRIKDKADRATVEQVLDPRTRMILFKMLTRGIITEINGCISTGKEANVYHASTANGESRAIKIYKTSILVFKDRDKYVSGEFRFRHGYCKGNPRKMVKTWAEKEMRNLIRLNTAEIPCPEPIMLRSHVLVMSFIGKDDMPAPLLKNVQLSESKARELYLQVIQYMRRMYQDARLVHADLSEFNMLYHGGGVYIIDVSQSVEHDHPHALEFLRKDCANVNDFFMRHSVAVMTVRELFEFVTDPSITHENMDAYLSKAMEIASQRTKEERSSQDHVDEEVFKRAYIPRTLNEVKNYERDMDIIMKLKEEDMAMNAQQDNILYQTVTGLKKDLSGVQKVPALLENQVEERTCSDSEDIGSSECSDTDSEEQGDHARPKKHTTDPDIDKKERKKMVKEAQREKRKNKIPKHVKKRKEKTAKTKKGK

[9] = target: T3, Ankyrin repeat and protein kinase domain-containing protein 1 (Homo sapiens) (UniProt Q8NFD2); experiment: Selectivity interaction (KinomeScan (DiscoverX)) EUB0000655a ANKK1; details: at 10 µM
T3 sequence (whole entry): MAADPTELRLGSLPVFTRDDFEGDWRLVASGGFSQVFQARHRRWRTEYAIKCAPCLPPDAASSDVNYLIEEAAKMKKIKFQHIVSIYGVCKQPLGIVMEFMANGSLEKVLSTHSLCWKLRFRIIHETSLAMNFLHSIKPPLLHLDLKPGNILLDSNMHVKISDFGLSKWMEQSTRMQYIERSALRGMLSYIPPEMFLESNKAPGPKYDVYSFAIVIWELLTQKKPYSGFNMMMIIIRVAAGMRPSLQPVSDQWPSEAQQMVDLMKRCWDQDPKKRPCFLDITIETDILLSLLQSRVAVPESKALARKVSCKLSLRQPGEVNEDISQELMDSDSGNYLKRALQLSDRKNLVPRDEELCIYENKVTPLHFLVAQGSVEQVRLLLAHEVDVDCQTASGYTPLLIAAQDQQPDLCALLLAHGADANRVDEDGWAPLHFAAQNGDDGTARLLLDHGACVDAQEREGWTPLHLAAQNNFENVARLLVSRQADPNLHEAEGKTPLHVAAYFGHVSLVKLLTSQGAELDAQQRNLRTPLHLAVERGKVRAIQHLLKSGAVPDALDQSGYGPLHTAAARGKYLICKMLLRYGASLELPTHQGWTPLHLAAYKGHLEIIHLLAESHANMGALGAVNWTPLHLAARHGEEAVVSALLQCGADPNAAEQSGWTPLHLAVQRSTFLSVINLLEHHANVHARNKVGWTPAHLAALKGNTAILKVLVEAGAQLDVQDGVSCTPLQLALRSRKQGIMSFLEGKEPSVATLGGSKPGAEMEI

[10] = target: Serine/threonine-protein kinase MARK1 (Homo sapiens) (UniProt Q9P0L2); experiment: Selectivity interaction (KinomeScan (DiscoverX)) EUB0000045b MARK1
Chain of Serine/threonine-protein kinase MARK1 (Homo sapiens) (Q9P0L2 whole entry, looked up): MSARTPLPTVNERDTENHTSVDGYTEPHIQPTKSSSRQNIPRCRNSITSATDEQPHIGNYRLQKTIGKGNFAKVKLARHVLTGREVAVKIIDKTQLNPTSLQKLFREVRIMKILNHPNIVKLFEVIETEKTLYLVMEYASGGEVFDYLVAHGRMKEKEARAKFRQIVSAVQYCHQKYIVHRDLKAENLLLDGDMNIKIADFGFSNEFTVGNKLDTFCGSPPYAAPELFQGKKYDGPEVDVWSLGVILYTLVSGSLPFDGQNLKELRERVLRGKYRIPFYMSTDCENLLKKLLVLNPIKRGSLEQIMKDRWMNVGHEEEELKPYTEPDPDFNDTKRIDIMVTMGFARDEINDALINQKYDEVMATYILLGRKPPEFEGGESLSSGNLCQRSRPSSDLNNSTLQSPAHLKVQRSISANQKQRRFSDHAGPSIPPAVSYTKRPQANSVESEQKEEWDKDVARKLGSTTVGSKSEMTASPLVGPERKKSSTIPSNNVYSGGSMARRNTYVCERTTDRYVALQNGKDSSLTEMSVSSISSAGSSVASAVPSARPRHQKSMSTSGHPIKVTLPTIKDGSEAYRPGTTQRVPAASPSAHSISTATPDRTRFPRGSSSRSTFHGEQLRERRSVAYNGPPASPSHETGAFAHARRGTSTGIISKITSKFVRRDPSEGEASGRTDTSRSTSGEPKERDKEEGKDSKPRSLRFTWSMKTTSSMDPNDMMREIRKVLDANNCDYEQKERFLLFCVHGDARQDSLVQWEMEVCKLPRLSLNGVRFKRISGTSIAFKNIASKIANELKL

[11] = target: Serine/threonine-protein kinase WNK3 (Homo sapiens) (UniProt Q9BYP7); experiment: Selectivity interaction (KinomeScan (DiscoverX)) EUB0001079a WNK3; details: at 1 µM
[12] = target: Macrophage-stimulating protein receptor (Homo sapiens, UniProt Q04912); experiment: Selectivity interaction (KinomeScan (DiscoverX)) EUB0001079a MST1R; details: at 1 µM
Chain of Macrophage-stimulating protein receptor (Q04912 25-304 limits assumed): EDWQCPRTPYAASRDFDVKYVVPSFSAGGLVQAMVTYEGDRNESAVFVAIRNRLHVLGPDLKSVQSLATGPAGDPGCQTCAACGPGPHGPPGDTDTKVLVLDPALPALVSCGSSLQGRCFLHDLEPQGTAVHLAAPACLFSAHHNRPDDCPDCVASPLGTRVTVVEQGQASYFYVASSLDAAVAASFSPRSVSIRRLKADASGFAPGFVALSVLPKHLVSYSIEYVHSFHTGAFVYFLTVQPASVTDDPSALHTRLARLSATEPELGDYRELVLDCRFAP
Chain of Macrophage-stimulating protein receptor (Q04912 310-1400 limits assumed): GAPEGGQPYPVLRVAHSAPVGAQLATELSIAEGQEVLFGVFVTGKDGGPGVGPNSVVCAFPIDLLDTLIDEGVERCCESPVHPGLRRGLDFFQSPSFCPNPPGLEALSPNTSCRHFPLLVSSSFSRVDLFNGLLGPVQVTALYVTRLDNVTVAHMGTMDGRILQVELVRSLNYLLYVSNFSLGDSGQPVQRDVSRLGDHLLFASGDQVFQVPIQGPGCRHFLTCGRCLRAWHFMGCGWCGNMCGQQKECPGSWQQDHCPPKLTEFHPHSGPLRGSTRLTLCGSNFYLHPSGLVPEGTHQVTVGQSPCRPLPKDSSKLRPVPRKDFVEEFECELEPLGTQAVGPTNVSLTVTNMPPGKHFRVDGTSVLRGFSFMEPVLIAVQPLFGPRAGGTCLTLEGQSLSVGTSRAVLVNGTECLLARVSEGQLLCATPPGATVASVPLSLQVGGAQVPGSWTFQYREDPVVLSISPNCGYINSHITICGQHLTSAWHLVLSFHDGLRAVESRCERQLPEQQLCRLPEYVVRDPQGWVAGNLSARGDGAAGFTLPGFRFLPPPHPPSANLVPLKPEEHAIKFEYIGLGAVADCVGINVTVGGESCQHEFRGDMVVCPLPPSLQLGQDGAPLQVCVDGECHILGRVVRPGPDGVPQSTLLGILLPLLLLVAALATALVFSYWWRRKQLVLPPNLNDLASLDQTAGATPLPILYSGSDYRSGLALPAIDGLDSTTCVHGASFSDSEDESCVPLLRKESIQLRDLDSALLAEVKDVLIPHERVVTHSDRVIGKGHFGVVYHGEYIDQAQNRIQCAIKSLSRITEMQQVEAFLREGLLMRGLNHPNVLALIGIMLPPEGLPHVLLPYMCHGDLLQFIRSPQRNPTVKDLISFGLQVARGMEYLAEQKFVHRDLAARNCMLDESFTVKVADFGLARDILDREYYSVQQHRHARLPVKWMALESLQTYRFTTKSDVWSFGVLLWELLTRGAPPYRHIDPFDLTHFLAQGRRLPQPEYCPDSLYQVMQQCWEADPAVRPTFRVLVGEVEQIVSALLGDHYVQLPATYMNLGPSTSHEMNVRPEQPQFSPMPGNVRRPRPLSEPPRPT

[13] = target: Tyrosine-protein kinase Srms (Homo sapiens) (UniProt Q9H3Y6); experiment: Selectivity interaction (KinomeScan (DiscoverX)) EUB0000618a SRMS; details: at 10 µM
Chain of Tyrosine-protein kinase Srms (Homo sapiens) (Q9H3Y6 whole entry): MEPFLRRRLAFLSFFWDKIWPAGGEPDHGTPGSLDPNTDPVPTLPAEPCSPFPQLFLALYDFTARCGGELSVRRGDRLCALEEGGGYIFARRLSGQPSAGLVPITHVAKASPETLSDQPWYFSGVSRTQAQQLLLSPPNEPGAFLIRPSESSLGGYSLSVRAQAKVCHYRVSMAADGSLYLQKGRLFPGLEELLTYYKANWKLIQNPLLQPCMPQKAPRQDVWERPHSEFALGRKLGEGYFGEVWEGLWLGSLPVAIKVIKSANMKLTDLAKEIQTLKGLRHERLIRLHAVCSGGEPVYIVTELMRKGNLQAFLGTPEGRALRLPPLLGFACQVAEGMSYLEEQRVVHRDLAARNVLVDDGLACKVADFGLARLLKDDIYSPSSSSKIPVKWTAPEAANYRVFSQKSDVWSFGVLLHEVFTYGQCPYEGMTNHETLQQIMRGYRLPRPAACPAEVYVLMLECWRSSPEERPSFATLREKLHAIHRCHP

[14] = target: Serine/threonine-protein kinase 16 (Homo sapiens, UniProt O75716); experiment: Selectivity interaction (KinomeScan (DiscoverX)) EUB0001619a STK16; details: at 1 µM
Chain of Serine/threonine-protein kinase 16 (O75716 whole entry): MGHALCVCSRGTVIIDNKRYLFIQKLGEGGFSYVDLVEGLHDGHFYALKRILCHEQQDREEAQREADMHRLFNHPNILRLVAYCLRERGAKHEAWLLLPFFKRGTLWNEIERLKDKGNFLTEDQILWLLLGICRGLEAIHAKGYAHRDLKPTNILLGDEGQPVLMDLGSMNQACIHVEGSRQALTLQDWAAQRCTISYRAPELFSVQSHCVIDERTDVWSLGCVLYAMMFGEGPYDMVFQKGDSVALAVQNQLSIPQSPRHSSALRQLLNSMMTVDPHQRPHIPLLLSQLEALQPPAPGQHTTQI

Chain of Cannabinoid receptor 1 (P21554 whole entry): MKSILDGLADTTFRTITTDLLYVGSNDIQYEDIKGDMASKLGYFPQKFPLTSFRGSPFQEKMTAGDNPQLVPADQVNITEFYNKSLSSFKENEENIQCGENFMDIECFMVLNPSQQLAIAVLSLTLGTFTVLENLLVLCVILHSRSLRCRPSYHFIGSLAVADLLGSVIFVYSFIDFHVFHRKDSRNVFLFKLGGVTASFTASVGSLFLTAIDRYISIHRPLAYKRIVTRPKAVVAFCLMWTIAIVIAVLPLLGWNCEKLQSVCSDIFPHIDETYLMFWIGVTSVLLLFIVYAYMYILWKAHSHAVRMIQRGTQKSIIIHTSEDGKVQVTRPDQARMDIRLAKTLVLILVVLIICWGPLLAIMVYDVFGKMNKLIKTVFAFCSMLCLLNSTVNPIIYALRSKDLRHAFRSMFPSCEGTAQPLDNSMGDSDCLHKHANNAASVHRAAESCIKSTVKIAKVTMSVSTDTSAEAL

- % of control [1]: 116%
Structure (SMILES): CC(=O)c1cc(-c2ccccc2OCC2CC2)c2ncccn12

- % of activity ([2]; at 1 µM): 94.3%
- % of activity ([2]; at 10 µM): 94.3%
Structure (SMILES): Cc1cc(C)cc([C@H]2c3cc(C)ccc3NC(=O)CN2C(=O)c2ccc(Br)s2)c1

Structure (SMILES): O=C(NOC[C@H](O)CO)c1ccc(F)c(F)c1Nc1ccc(I)cc1F
- % of control [3]: 78%

Structure (SMILES): CNC(=O)Nc1ccc(-c2nc(N3CC4CCC(C3)O4)c3cnn(C4CCC5(CC4)OCCO5)c3n2)cc1
- % of control [4]: 100%
- % of inhibition [5]: 9%

- % of inhibition [6]: 14%
Structure (SMILES): CC[C@@H]1[C@H](F)C(=O)N[C@@H]1COc1nccc2cc(C(N)=O)c(OC)cc12 [ZIMLOVISERTIB]

Structure (SMILES): COCC(=O)NC/C=C/c1ccc2ncnc(Nc3ccc(Oc4ccc(C)nc4)c(C)c3)c2c1 [CP-724714]
- % of control [7]: 100%

Structure (SMILES): CN(C)CCOc1ccc(-c2nc(-c3ccncc3)c(-c3ccc4c(c3)CC/C4=N\O)[nH]2)cc1
- % of control [8]: 97%
- % of control [9]: 100%

Structure (SMILES): C=CC(=O)Nc1cc(-n2c(=O)ccc3cnc4ccc(-c5ccc(NS(C)(=O)=O)cc5)cc4c32)ccc1C
- % of control ([10]; at 1 µM): 97%
- % of control ([10]; at 10 µM): 89%

Structure (SMILES): Nc1cnc(N2CCc3cc(S(=O)(=O)Nc4c(F)cc(Cl)cc4F)cc(N4CCCC4=O)c32)nc1 [TP-020n]
- % of control [11]: 100%
- % of control [12]: 98%

Structure (SMILES): O[C@H]1CC[C@H](Nc2ncc3nc(Nc4c(F)cc(F)cc4F)n([C@H]4CCOC4)c3n2)CC1
- % of control [13]: 89%

Structure (SMILES): N#Cc1cccc(-c2c[nH]c3ncnc(N4CCOCC4)c23)c1
- % of control [14]: 33%
